In US10125118B2, “Heteroaryl compounds and their use as therapeutic drugs” (Dong-A Socio Holdings Co., Ltd., priority 2015, dated 2018):

Assays:
[1] = test system: CD8-MerTK in Ba/F3-CDM cells; assay: In cell MER kinase assay, Ba/F3-CDM cell proliferation without IL-3 (Celltiter-Glo); format: cell-based, murine; details: 48 hours compound treatment, read-out: Cell growth inhibition (GI50)
Method in brief: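 Ba/F3 cells, IL-3-dependent, transfected with CD8-MerTK and grown without IL-3 in DMEM/10% FBS. IL-3-supplemented Ba/F3 cells run in parallel as a cytotoxicity control.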

[2] = target: human c-MER catalytic domain (Homo sapiens (Human), UniProt Q12866); assay: LanthaScreen TR-FRET kinase assay, c-MER; details: read-out: Mer TK inhibition (IC50); Biochemical IC50, TR-FRET, 10 uM ATP
Sequence of human c-MER catalytic domain (Q12866 587-858): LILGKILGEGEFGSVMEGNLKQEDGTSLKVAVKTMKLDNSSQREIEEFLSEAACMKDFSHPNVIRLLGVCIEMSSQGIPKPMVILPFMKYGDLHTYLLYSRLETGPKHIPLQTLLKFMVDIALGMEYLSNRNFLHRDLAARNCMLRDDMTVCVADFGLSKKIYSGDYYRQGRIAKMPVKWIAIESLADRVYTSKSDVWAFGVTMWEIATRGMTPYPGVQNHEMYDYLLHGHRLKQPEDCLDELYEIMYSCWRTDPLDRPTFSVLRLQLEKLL

SMILES	GI50 [1]	IC50 [2]
CC(c1ccc(-c2ccc(CO[C@H]3CNC[C@@H]3NC(=O)c3cc(-c4cnn(C)c4)cnc3N)cc2)cc1)N1CCN(CCO)CC1 (stereo partly drawn) [Example 442, 2-amino-N-((3S,4S)-4-((4′-(1-(4-(2-hydroxyethyl)piperazin-1-yl)ethyl)-[1,1′-biphenyl]-4-yl)methoxy)pyrrolidin-3-yl)-5-(1-methyl-1H-pyrazol-4-yl)nicotinamide]	> 1000 nM	< 10 nM
CC(c1ccc(-c2ccc(CO[C@H]3CN(C)C[C@@H]3NC(=O)c3cc(-c4cnn(C)c4)cnc3N)cc2)cc1)N1CCN(CCO)CC1 (stereo partly drawn) [Example 443, 2-amino-N-((3S,4S)-4-((4′-(1-(4-(2-hydroxyethyl)piperazin-1-yl)ethyl)-[1,1′-biphenyl]-4-yl)methoxy)-1-methylpyrrolidin-3-yl)-5-(1-methyl-1H-pyrazol-4-yl)nicotinamide]	< 100 nM	< 10 nM
Cn1cc(-c2cnc(N)c(C(=O)N[C@H]3CNC[C@@H]3OCc3ccc(-c4ccc(CN5CCN(CCO)CC5)c(C(F)(F)F)c4)cc3)c2)cn1 [Example 444, 2-amino-N-((3S,4S)-4-((4′-((4-(2-hydroxyethyl)piperazin-1-yl)-methyl)-3′-(trifluoromethyl)-[1,1′-biphenyl]-4-yl)methoxy)pyrrolidin-3-yl)-5-(1-methyl-1H-pyrazol-4-yl)nicotinamide]	> 1000 nM	< 10 nM
CN1C[C@H](NC(=O)c2cc(-c3cnn(C)c3)cnc2N)[C@@H](OCc2ccc(-c3ccc(CN4CCN(CCO)CC4)c(C(F)(F)F)c3)cc2)C1 [Example 445, 2-amino-N-((3S,4S)-4-((4′-((4-(2-hydroxyethyl)piperazin-1-yl)-methyl)-3′-(trifluoromethyl)-[1,1′-biphenyl]-4-yl)methoxy)-1-methylpyrrolidin-3-yl)-5-(1-methyl-1H-pyrazol-4-yl)nicotinamide]	< 100 nM	< 10 nM
Cn1cc(-c2cnc(N)c(C(=O)N[C@H]3CNC[C@@H]3OCc3ccc(-c4ccc(CN5CCN(CCO)CC5)cc4)cc3)c2)cn1 [Example 446, 2-amino-N-((3S,4S)-4-((4′-((4-(2-hydroxyethyl)piperazin-1-yl)-methyl)-[1,1′-biphenyl]-4-yl)methoxy)pyrrolidin-3-yl)-5-(1-methyl-1H-pyrazol-4-yl)-nicotinamide]	> 1000 nM	< 10 nM
CN1C[C@H](NC(=O)c2cc(-c3cnn(C)c3)cnc2N)[C@@H](OCc2ccc(-c3ccc(CN4CCN(CCO)CC4)cc3)cc2)C1 [Example 447, 2-amino-N-((3S,4S)-4-((4′-((4-(2-hydroxyethyl)piperazin-1-yl)-methyl)-[1,1′-biphenyl]-4-yl)methoxy)-1-methylpyrrolidin-3-yl)-5-(1-methyl-1H-pyrazol-4-yl)nicotinamide]	< 100 nM	< 10 nM
CN1CCN(Cc2ccc(-c3ccc(CO[C@H]4COC[C@@H]4NC(=O)c4cc(-c5cnn(C)c5)cnc4N)cc3)cc2)CC1 [Example 448, 2-amino-5-(1-methyl-1H-pyrazol-4-yl)-N-((3S,4R)-4-((4′-((4-methylpiperazin-1-yl)methyl)-[1,1′-biphenyl]-4-yl)methoxy)tetrahydrofuran-3-yl)-nicotinamide]	< 100 nM	< 10 nM
CN1CCN(Cc2ccc(-c3ccc(CO[C@H]4COC[C@@H]4NC(=O)c4cc(-c5cnn(C)c5)cnc4N)cc3)cc2C(F)(F)F)CC1 [Example 449, 2-amino-5-(1-methyl-1H-pyrazol-4-yl)-N-((3S,4R)-4-((4′-((4-methylpiperazin-1-yl)methyl)-3′-(trifluoromethyl)-[1,1′-biphenyl]-4-yl)methoxy)-tetrahydrofuran-3-yl)nicotinamide]	< 100 nM	< 10 nM
CN1CCN(C(C)(C)c2ccc(-c3ccc(CO[C@H]4COC[C@@H]4NC(=O)c4cc(-c5cnn(C)c5)cnc4N)cc3)cc2)CC1 [Example 450, 2-amino-5-(1-methyl-1H-pyrazol-4-yl)-N-((3S,4R)-4-((4′-(2-(4-methylpiperazin-1-yl)propan-2-yl)-[1,1′-biphenyl]-4-yl)methoxy)tetrahydrofuran-3-yl)nicotinamide]	< 100 nM	< 10 nM
Cn1cc(-c2cnc(N)c(C(=O)N[C@H]3COC[C@@H]3OCc3ccc(-c4ccc(CN5CCN(CCO)CC5)cc4)cc3)c2)cn1 [Example 451, 2-amino-N-((3S,4R)-4-((4′-((4-(2-hydroxyethyl)piperazin-1-yl)methyl)-[1,1′-biphenyl]-4-yl)methoxy)tetrahydrofuran-3-yl)-5-(1-methyl-1H-pyrazol-4-yl)nicotinamide]	< 100 nM	< 10 nM
Cn1cc(-c2cnc(N)c(C(=O)N[C@H]3COC[C@@H]3OCc3ccc(-c4ccc(CN5CCN(CCO)CC5)c(C(F)(F)F)c4)cc3)c2)cn1 [Example 452, 2-amino-N-((3S,4R)-4-((4′-((4-(2-hydroxyethyl)piperazin-1-yl)-methyl)-3′-(trifluoromethyl)-[1,1′-biphenyl]-4-yl)methoxy)tetrahydrofuran-3-yl)-5-(1-methyl-1H-pyrazol-4-yl)nicotinamide]	< 100 nM	< 10 nM
Cn1cc(-c2cnc(N)c(C(=O)N[C@H]3COC[C@@H]3OCc3ccc(-c4ccc(C(C)(C)N5CCN(CCO)CC5)cc4)cc3)c2)cn1 [Example 453, 2-amino-N-((3S,4R)-4-((4′-(2-(4-(2-hydroxyethyl)piperazin-1-yl)-propan-2-yl)-[1,1′-biphenyl]-4-yl)methoxy)tetrahydrofuran-3-yl)-5-(1-methyl-1H-pyrazol-4-yl)nicotinamide]	100 to 500 nM	< 10 nM
